Measurements as given in publication PMC10388362, “Fluorescent Ligands Enable Target Engagement Studies for the Intracellular Allosteric Binding Site of the Chemokine Receptor CXCR2” (Journal of Medicinal Chemistry, 2023).
Where “and” joins values, the source holds several entries; their conditions need not be identical. Identical values can stand only once.

Biological target: T1, CXCR2 (Homo sapiens, UniProt P25025)
T1 construct: Promega pNLF1-C (Nluc) #CXCR20TN00; host or cells: HEK293T, transient transfection (PEI)
T1 sequence (P25025 1-360): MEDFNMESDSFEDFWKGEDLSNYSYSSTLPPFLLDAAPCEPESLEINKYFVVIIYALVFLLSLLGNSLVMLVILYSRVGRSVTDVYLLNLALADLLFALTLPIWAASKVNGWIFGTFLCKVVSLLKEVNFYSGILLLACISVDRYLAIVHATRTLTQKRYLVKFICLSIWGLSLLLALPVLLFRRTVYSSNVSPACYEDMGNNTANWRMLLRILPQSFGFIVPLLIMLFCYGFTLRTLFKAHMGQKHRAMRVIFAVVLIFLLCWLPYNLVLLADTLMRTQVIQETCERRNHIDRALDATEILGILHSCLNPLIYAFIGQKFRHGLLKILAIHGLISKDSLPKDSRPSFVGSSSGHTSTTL
Test: Membrane-based NanoBRET association and dissociation kinetic assay
Format: binding
Procedure: 5 μL of a solution of the fluorescent ligand (9a) diluted to varying concentrations (final assay concentrations: 10–100 nM) in the assay buffer and 5 μL of the assay buffer were transferred to a 384-well plate. For the determination of nonspecific binding, we added a solution of a nonlabeled competitor dissolved in the assay buffer (3, final assay concentration: 10 μM) instead. After the addition of 5 μL of a furimazine solution (final assay dilution: 1:350 in assay buffer), plates were incubated for 3 min in the dark at ambient temperature. Subsequently, 20 μL of the membrane preparation (2 μg total protein/well) was added (final assay volume: 35 μL). BRET ratios were measured with a CLARIOstar microplate reader using 620/10 and 475/30 nm emission filters over time at ambient temperature or 37 °C. The obtained data were analyzed using the association kinetics (one ligand concentration) algorithm in PRISM9.5 (GraphPad) to determine association kinetics using a predetermined koff as a constraint.
5 μL of a solution of the fluorescent ligand (9a) diluted to varying concentrations (final assay concentrations: 10–100 nM) in the assay buffer and 5 μL of the assay buffer were transferred to a 384-well plate. In order to determine nonspecific binding, we added a solution of a nonlabeled competitor dissolved in the assay buffer (3, final assay concentration: 10 μM) instead of the 5 μL of the assay buffer. Then, 20 μL of the membrane preparation (2 μg total protein/well) was added, and plates were incubated for 4 h at ambient temperature in the dark. Subsequently, 5 μL of a vivazine solution (final assay dilution: 1:350 in assay buffer) was added. Plates were incubated for further 60 min in the dark at ambient temperature. Thereafter, 1 μL of a solution of a […] competitor dissolved in the assay buffer (3, final assay concentration: 10 μM) was added. For control experiments, we added 1 μL of the assay buffer instead of the competitor solution. BRET ratios were measured with a CLARIOstar microplate reader using 620/10 and 475/30 nm emission filters over time at ambient temperature or 37 °C. Specific BRET ratios were calculated as a difference of total and nonspecific binding. The obtained data were analyzed using the dissociation—one phase exponential decay algorithm in PRISM9.5 (GraphPad) to determine dissociation kinetics.

[1] = CXCR2_Nluc membranes, 37 °C, mean
[2] = CXCR2_Nluc membranes, room temperature, mean
[3] = membranes, 37 °C, 9a 10 nM, single determinations
[4] = membranes, 37 °C, 9a 10 nM, single determinations, koff fixed 0.00569 min-1
[5] = membranes, 37 °C, 9a 25 nM, single determinations
[6] = membranes, 37 °C, 9a 25 nM, single determinations, koff fixed 0.00569 min-1
[7] = membranes, 37 °C, 9a 50 nM, single determinations
[8] = membranes, 37 °C, 9a 50 nM, single determinations, koff fixed 0.00569 min-1
[9] = membranes, 37 °C, 9a 100 nM, single determinations
[10] = membranes, 37 °C, 9a 100 nM, single determinations, koff fixed 0.00569 min-1
[11] = membranes, room temperature, 9a 10 nM, single determinations
[12] = membranes, room temperature, 9a 25 nM, single determinations
[13] = membranes, room temperature, 9a 50 nM, single determinations
[14] = membranes, room temperature, 9a 100 nM, single determinations

In the case of `Cc1ccc([C@H](Nc2c(Nc3cccc(C(=O)NCc4cn(CCOCCOCCOCCNC(=O)c5ccc(C(=O)[O-])c(-c6c7ccc(=[N+](C)C)cc-7oc7cc(N(C)C)ccc67)c5)nn4)c3O)c(=O)c2=O)C(C)(C)C)o1` [9a, (R)-4-((2-(2-(2-(2-(4-((3-((2-((2,2-Dimethyl-1-(5-methylfuran-2-yl)propyl)amino)-3,4-dioxocyclobut-1-en-1-yl)amino)-2-hydroxybenzamido)methyl)-1H-1,2,3-triazol-1-yl)ethoxy)ethoxy)ethoxy)ethyl)carbamoyl)-2-(6-(dimethylamino)-3-(dimethyliminio)-3H-xanthen-9-yl)benzoate], the koff [1] is reported as 9.48e-05 s⁻¹, the kon [1] is reported as 32600 M⁻¹ s⁻¹ and the tR [1] is reported as 178.8 min. The Kd (CXCR2_Nluc membranes, cell-free, 37 °C) was 2.91 ± 0.27 nM, the Kd (CXCR2_Nluc membranes, room temperature) was 1.94 ± 0.27 nM and the koff [2] was 3.57e-05 s⁻¹. For the same molecule, the kon [2] was 18300 M⁻¹ s⁻¹, the residence time tr [2] was 485.6 min and the residence time (CXCR2_Nluc membranes, room temperature, mean, read-out: residence time tr) was 486 ± 28 min. For the same molecule, the koff [3] was 8.83e-05 s⁻¹, the “koff [min-1]” value [3] was 0.00567 min⁻¹ and 0.00464 min⁻¹ and the “tR” value [3] was 188.6 min and 176.4 min and 215.5 min. The kon [4] was 42500 M⁻¹ s⁻¹, the “kon [M-1 min-1]” value [4] was 52685.82 M⁻¹ s⁻¹ and 46570.12 M⁻¹ s⁻¹ and the koff [5] was 0.000102 s⁻¹. The “koff [min-1]” value [5] was 0.00658 min⁻¹ and 0.00473 min⁻¹, the “tR” value [5] was 162.5 min and 152.0 min and 211.3 min and the kon [6] was 29600 M⁻¹ s⁻¹. For the same molecule, the “kon [M-1 min-1]” value [6] was 40515.73 M⁻¹ s⁻¹ and 31065.33 M⁻¹ s⁻¹, the koff [7] was 9.33e-05 s⁻¹ and the “koff [min-1]” value [7] was 0.0059 min⁻¹ and 0.00531 min⁻¹. For the same molecule, the “tR” value [7] was 178.6 min and 169.4 min and 188.3 min, the kon [8] was 26700 M⁻¹ s⁻¹ and the “kon [M-1 min-1]” value [8] was 29466.47 M⁻¹ s⁻¹ and 24036.28 M⁻¹ s⁻¹. The koff [9] was 0.000105 s⁻¹, the “koff [min-1]” value [9] was 0.00726 min⁻¹ and 0.00487 min⁻¹ and the “tR” value [9] was 159.6 min and 137.7 min and 205.4 min. For the same molecule, the kon [10] was 23300 M⁻¹ s⁻¹, the “kon [M-1 min-1]” value [10] was 25508.45 M⁻¹ s⁻¹ and 19799.72 M⁻¹ s⁻¹ and the koff [11] was 3.12e-05 s⁻¹. For the same molecule, the “koff [min-1]” value [11] was 0.00183 min⁻¹ and 0.00215 min⁻¹, the “tR” value [11] was 534.2 min and 545.6 min and 464.7 min and the koff [12] was 2.9e-05 s⁻¹. For the same molecule, the “koff [min-1]” value [12] was 0.00253 min⁻¹ and 0.00232 min⁻¹, the “tR” value [12] was 575.7 min and 394.8 min and 431.4 min and the koff [13] was 2.68e-05 s⁻¹. For the same molecule, the “koff [min-1]” value [13] was 0.00305 min⁻¹ and 0.00242 min⁻¹, the “tR” value [13] was 619.6 min and 328.4 min and 413.1 min and the koff [14] was 2.58e-05 s⁻¹. The “koff [min-1]” value [14] was 0.00219 min⁻¹ and 0.00238 min⁻¹ and the “tR” value [14] was 643.1 min and 457.0 min and 420.0 min.
